Reference: patent publication US7647217B2, “Structure of the farnesoid X receptor ligand binding domain and methods of use therefor” (The Salk Institute for Biological Studies, priority 2002, dated 2010)

Legend:
Experiment in all cases: GAL4 chimeric NHR cross-reactivity assay
Assay type in all cases: cell-based
Details in all cases: 10 μM
hRARβ = target: T1, hRARβ (Homo sapiens, UniProt P10826)
T1 construct: expressed in transfected cells; host or cells: CV-1 (monkey)
T1 sequence (P10826 183-417 limits assumed): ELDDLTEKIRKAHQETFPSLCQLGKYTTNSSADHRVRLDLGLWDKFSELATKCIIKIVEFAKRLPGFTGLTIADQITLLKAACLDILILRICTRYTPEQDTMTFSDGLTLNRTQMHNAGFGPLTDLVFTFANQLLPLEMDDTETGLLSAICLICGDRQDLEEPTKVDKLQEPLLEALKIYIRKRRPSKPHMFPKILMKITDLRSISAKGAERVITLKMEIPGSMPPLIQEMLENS
Protocol: (§1) FIGS. 3A-3E collectively show the results of ligand activation of CV-1 cells co-transfected with a luciferase reporter gene with a variety of receptor expression constructs. […] FIGS. 3C-3E show the results of CV-1 cells transiently transfected with the indicated reporter constructs, treated with either DMSO or 10 μM of the compounds fexaramine (3C), fexarine (3D), fexarene (3E). Reporter activity was normalized to the internal control and the data plotted as fold activation relative to untreated cells. All transfections contained CMX-βgal as an internal control.
(§2) The expression plasmids pCMX, pCMX-LacZ, pCMX-mFXRFL, pCMX-hRXRFL, pCMX-GALDBD-rFXRLBD and other pCUX-GALDBD-NR LBDs (hRXRα, hPPARαγδ, mPXR, hPXR, hLXRα, HTRβ, hRARβ, mCAR, mERR3 and hVDR) have been described elsewhere (Blumberg et al. (1998). SXR, a novel steroid and xenobiotic-sensing nuclear receptor. Genes Dev. 12(20), 3195-205). The reporter plasmids pMH2004-TK-luc, pTKECRE*6-luc, pTKER-8*2-luc and pMRP-2-luc also have been described elsewhere. The hPLTP-luc promoter was kindly provided by Dr Dennis Dowhan and the hIBABP-luc promoter was created from a plasmid provided by Dr Philippe Besnard.
(§3) Cell-based transcriptional activation assays using chimeric nuclear hormone receptor (NHR) constructs were established to measure the selectivity of the compounds to FXR relative to other NHRs (Forman et al. (1995). Identification of a nuclear receptor that is activated by farnesol metabolites. Cell 81, 687-693). These assays used fusion proteins with the yeast GAL4 DNA binding domain connected to the ligand-binding domain (LBD) of NHRs. These constructs were co-transfected with a thymidine kinase C minimal promoter reporter vector containing four copies of the GAL4 binding site. Titration experiments were then performed using the identified compounds. […] Addition of RXR had no effect on the activation potential of fexaramine, fexarine, fexarene in this assay.
(§4) No activity was observed on other chimeric NHR constructs including hRXRα, hPPARαγδ, mPXR, hPXR, hLXRα, hTRβ, hRARβ, mCAR, mERR3 and hVDR (see FIGS. 3C-3E).

mCAR = target: T2, mCAR (Mus musculus, UniProt O35627)
T2 construct: expressed in transfected cells; host or cells: CV-1 (monkey)
T2 sequence (O35627 119-358 limits assumed): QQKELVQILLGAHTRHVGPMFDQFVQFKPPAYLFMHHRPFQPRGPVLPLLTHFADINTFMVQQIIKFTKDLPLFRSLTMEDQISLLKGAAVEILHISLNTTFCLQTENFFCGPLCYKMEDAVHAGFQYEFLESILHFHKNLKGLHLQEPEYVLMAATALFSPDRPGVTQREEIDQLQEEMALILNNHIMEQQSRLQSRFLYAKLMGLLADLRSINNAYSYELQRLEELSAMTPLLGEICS
Protocol: as §1, §2, §3, §4

hRXRα = target: T3, hRXRα (Homo sapiens, UniProt P19793)
T3 construct: expressed in transfected cells; host or cells: CV-1 (monkey)
T3 sequence (P19793 227-458 limits assumed): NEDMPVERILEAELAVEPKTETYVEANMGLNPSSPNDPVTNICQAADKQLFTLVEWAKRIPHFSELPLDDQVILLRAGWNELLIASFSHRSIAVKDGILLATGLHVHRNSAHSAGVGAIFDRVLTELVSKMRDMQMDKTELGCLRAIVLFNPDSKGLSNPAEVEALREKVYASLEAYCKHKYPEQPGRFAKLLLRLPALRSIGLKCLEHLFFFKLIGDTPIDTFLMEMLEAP
Protocol: as §1, §2, §3, §4

hLXRα = target: T4, hLXRα (Homo sapiens, UniProt Q13133)
T4 construct: expressed in transfected cells; host or cells: CV-1 (monkey)
T4 sequence (Q13133 209-447 limits assumed): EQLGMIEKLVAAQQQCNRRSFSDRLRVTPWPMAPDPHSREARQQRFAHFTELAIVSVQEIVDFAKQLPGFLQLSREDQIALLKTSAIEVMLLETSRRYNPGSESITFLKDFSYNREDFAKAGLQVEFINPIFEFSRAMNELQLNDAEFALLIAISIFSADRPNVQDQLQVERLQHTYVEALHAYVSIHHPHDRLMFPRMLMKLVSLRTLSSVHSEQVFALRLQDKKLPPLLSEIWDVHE
Protocol: as §1, §2, §3, §4

hVDR = target: T5, hVDR (Homo sapiens, UniProt P11473)
T5 construct: expressed in transfected cells; host or cells: CV-1 (monkey)
T5 sequence (P11473 127-423 limits assumed): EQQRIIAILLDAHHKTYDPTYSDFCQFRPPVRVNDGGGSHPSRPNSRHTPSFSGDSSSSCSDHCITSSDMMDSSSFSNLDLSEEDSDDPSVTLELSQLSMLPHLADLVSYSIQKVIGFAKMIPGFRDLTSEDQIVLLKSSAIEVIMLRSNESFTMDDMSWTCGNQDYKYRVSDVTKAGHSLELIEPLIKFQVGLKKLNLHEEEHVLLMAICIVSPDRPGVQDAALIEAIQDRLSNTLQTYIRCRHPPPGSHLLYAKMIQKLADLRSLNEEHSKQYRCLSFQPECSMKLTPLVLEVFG
Protocol: as §1, §2, §3, §4

hPXR = target: T6, hPXR (Homo sapiens, UniProt O75469)
T6 construct: expressed in transfected cells; host or cells: CV-1 (monkey)
T6 sequence (O75469 146-433 limits assumed): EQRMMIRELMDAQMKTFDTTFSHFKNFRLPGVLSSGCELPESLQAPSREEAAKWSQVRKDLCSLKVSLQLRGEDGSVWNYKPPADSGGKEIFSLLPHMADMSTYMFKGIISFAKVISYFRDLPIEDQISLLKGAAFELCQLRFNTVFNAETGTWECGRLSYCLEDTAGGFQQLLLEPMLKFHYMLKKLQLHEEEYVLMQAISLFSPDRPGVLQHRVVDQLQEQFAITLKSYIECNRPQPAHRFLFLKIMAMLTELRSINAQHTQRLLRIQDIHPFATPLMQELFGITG
Protocol: as §1, §2, §3, §4

| activity on chimeric hRARβ construct (hRARβ) | activity on chimeric mCAR construct (mCAR) | activity on chimeric hRXRα construct (hRXRα) | activity on chimeric hLXRα construct (hLXRα) | activity on chimeric hVDR construct (hVDR) | activity on chimeric hPXR construct (hPXR) | Compound |
| --- | --- | --- | --- | --- | --- | --- |
| No activity | No activity | No activity | No activity | No activity |  | COC(=O)/C=C/c1cccc(N(Cc2ccc(-c3ccc(N(C)C)cc3)cc2)C(=O)C2CCCCC2)c1 [fexaramine] |
| No activity | No activity | No activity | No activity | No activity | No activity | COC(=O)/C=C/c1cccc(N(Cc2ccc(/C=C/c3ccccc3)cc2)C(=O)C2CCCCC2)c1 [fexarene] |
| No activity | No activity | No activity | No activity | No activity | No activity | COC(=O)/C=C/c1cccc(N(Cc2ccc(-c3ccc4c(c3)OCO4)cc2)C(=O)C2CCCCC2)c1 [fexarine] |
